Experimental findings from paper PMC5613772 (Biochemistry and Biophysics Reports, 2016) are described below.

Assay [1] addresses T1, L. donovani Gcs full length (GcsF, LdGcs, Gcs) (Leishmania donovani, UniProt Q67BG3).
T1 sequence (Q67BG3 1-687): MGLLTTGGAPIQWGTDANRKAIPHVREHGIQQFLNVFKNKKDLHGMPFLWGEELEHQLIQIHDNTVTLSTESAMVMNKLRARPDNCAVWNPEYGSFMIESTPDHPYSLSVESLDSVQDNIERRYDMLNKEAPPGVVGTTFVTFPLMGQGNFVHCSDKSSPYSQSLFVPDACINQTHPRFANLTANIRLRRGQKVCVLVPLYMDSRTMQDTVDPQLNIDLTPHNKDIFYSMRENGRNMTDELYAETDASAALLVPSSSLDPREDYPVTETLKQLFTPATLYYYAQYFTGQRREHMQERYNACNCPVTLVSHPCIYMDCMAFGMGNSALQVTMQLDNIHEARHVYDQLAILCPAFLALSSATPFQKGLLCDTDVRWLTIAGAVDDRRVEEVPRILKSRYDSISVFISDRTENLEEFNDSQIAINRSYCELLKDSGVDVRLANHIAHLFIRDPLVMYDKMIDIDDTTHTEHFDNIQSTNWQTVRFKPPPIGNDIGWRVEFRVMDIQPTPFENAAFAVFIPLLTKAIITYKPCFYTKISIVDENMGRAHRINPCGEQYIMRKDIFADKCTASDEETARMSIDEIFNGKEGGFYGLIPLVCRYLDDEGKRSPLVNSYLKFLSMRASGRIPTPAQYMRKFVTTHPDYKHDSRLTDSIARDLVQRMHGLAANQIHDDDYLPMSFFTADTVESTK
Put plainly: tryptophan fluorescence quenching. It is filed as binding.

The target of assay [2] is L. donovani Gcs full length (GcsF, LdGcs, Gcs) (Leishmania donovani, UniProt Q67BG3, R498A). Put plainly: biochemical.
Assay [3] has as its target L. donovani Gcs full length (GcsF, LdGcs, Gcs) (Leishmania donovani, UniProt Q67BG3, E99A). Put plainly: biochemical.
Assay [4] addresses L. donovani Gcs full length (GcsF, LdGcs, Gcs) (Leishmania donovani, UniProt Q67BG3, E55A). Put plainly: biochemical.
For assay [5], the target named is L. donovani Gcs full length (GcsF, LdGcs, Gcs) (Leishmania donovani, UniProt Q67BG3, E92A). Put plainly: biochemical.
The target in assay [6] is GcsC (Leishmania donovani, UniProt Q67BG3). The settings on record: value said to be in Table 2 but not printed there.

Regarding `N[C@@H](CCC(=O)O)C(=O)O` [L-Glutamate], the dissociation constant Kd in assay [1] came out at 93.7 ± 1.8 µM; in assay [2], 890 ± 0.167 µM; in assay [3], 666 ± 0.3 µM; in assay [4] it was 793 ± 0.182 µM; in assay [5] it was 107 ± 0.16 µM.
With `Nc1ncnc2c1ncn2[C@@H]1O[C@H](COP(=O)(O)OP(=O)(O)OP(=O)(O)O)[C@@H](O)[C@H]1O` [ATP], the equilibrium dissociation constant (Kd) in assay [1] worked out at 2.7 ± 0.3 µM; in assay [2] it was 1550 ± 238 µM; in assay [3] it was 5.8 ± 0.3 µM; in assay [4], 2.5 ± 1 µM; in assay [5], 3235 ± 0.937 µM. The “ITC or tryptophan fluorescence quenching (not told)” value in assay [6] was “GcsT and C-terminal constructs also show comparable binding with ATP”.
As for `N[C@@H](CS)C(=O)O` [L-Cysteine], the Kd in assay [1] was found to be 177 ± 2.6 µM; in assay [4], 95 ± 2.1 µM; in assay [5], 115 ± 0.35 µM.
